Where two headings read alike, the source gives them in different places.
Experiments:
[1] = target: T1, Keap1 Kelch domain (321-609) / TAMRA-labeled 16mer NRF2 peptide (ETGE motif) (Homo sapiens, UniProt Q14145); experiment: NRF2-Keap1 FP Assay (Keap1 Kelch fluorescence polarization); assay type: binding; conditions: 20 nM Keap1 (321-609), 8 nM Tamra labeled peptide
T1 construct: the Kelch domain (321-609) of Keap1 is used
Summary of the method: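 Compound dilutions (3-fold) were incubated 1 hr at room temperature with 20 nM Keap1 Kelch (321-609) and 8 nM TAMRA-labeled ETGE 16mer peptide. Buffer was 50 mM Tris pH 8.0, 100 mM NaCl, 5 mM MgCl2, 1 mM DTT, 2 mM CHAPS, 0.005% BSA. Fluorescence polarization (mP) was normalized to controls and fitted with a four-parameter equation to give pIC50.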

[2] = test system: NQO1 specific enzyme activity in BEAS-2B cells (marker for NRF2 activation); experiment: BEAS-2B NQO1 MTT Assay; assay type: cell-based; conditions: Homo sapiens, compound incubated 48 hours, read-out: EC50 (NQO1 specific enzyme activity induction)
Summary of the method: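 BEAS-2B cells treated with compound for 48 h at 37 °C, then lysed; NQO1 activity in lysates measured kinetically by MTT reduction at A570 over 30 min. pEC50 from 3-parameter fit of ΔOD/min versus log concentration; lysate also taken for Cell Titer Glo.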

[3] = target: T2, full length Keap1 protein / full length NRF2 protein (Homo sapiens, UniProt Q14145); experiment: NRF2-Keap1 TR-FRET Assay; assay type: binding; conditions: 25 nM Keap1-FlagHis and 50 nM biotin-NRF2 added
T2 construct: full length NRF2 protein and full length Keap1 protein (Keap1 exists a dimer) are used; His
From the text: In the NRF2-Keap1 TR-FRET (time-resolved fluorescence resonance energy transfer) assay, full length NRF2 protein and full length Keap1 protein (Keap1 exists a dimer) are used. The assay detects the ability of compound to displace the binding of FlagHis-tagged Keap1 with biotinylated, Avi-tagged NRF2 protein. Biotin-NRF2 binds to streptavidin-europium (a component of the detection mix) and Keap1-FlagHis is recognized by anti-Flag APC (allophycocyanin) antibody (also a component of the detection mix). If binding occurs between the two proteins, there will be an energy transfer from the Eu+3 (donor) at 615 nm to the APC (acceptor) at 665 nm. A potential Keap1 inhibitor will cause a reduction in the TR-FRET signal by interfering with the binding of Keap1 to NRF2.
One hundred nanoliters of 100× compound dose response curves (serial 3-fold dilutions) in DMSO are stamped using an Echo liquid handling system (Labcyte) into 384-well, low volume, black assay plates (Greiner, #784076), with DMSO in columns 6 and 18. The top concentration of compound is located in columns 1 and 13. All reagents are diluted in assay buffer (50 mM Tris, pH 8.0, 5 mM MgCl2, 100 mM NaCl, 0.005% BSA, 1 mM DTT, and 2 mM CHAPS). The BSA, DTT, and CHAPS are added to the assay buffer on the day of assay. Using a Multidrop Combi (Thermo Electron Corporation) equipped with a metal tip dispenser, 5 ul of 25 nM Keap1-FlagHis protein is added to all wells of the compound plate, with the exception of the wells in column 18. Wells in column 18 receive 5 ul of assay buffer instead. Plates are centrifuged at 500 rpm for 1 minute, covered with a plate lid, and incubated at 37° C. for 2.25 hours. Plates are then removed from the incubator and allowed to cool to RT for 15 minutes. Five microliters of 50 nM biotin-NRF2 protein is then added to all wells of the plates and the plates are spun at 500 rpm for 1 minute, followed by incubating at 4° C. for 1.25 hours. The plates are then allowed to warm to RT for 15 minutes, followed by the addition of 10 ul of detection mix (1 nM Streptavidin Eu+ W1024 and 5 ug/ml mouse anti-DYKDDDDK IgG conjugated to SureLight APC antibody; both from Columbia Biosciences) to all wells. Plates are spun at 500 rpm for 1 minute, incubated for 1 hour at RT, and read on an Envision plate reader using a 320 nm excitation filter and 615 nm and 665 nm emission filters. Compound response (% inhibition) and potency (pIC50) are calculated based on the ratio of the two emissions (665 nm/615 nm) and then the transformed data is normalized against controls in the assay (control 1=1% DMSO in the presence of NRF2 and Keap1 protein and control 2=1% DMSO in the absence of protein). Data analysis is handled using the software package Abase XE (Surrey, United Kingdom). The % inhibition values are calculated from the ratio (transformed) data by the equation: 100−(100*(compound response−average control 2)/(average control 1−average control2)). For calculation of pIC50s, Abase XE uses a four parameter equation. pIC50 is the negative log of the IC50.

T1 sequence (Q14145 321-609): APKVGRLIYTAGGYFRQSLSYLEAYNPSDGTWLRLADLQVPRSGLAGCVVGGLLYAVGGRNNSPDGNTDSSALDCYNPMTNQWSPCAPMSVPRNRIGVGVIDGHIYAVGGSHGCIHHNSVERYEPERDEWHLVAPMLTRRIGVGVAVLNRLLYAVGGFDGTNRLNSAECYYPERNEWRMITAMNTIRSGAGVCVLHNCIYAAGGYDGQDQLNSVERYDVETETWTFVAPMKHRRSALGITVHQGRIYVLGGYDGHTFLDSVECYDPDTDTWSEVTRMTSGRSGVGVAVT
T2 sequence (Q14145 whole entry): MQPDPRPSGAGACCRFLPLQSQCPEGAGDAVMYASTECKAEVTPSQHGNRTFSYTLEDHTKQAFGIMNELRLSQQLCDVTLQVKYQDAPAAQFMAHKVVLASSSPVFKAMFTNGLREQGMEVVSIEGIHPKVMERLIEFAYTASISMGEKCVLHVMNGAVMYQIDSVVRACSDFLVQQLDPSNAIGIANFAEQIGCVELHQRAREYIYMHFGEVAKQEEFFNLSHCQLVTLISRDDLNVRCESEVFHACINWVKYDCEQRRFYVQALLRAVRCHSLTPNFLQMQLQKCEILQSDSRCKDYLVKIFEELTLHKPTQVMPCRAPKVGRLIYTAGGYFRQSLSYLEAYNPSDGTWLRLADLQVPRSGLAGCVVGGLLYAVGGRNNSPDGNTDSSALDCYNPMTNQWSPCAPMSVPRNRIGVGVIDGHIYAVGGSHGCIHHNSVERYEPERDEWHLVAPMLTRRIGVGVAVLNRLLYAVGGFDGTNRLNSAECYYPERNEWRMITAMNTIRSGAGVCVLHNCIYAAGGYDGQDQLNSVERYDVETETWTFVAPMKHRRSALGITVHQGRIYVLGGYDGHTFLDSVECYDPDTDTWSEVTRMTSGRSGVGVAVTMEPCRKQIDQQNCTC

| SMILES | IC50 [1] [nM] | EC50 [2] [nM] | IC50 [3] [nM] | EC50 ([2]; BEAS-2B, 48 h) [nM] |
| --- | --- | --- | --- | --- |
| O=C(O)c1cnn(-c2cccc(-c3cccc(C(=O)N4CCCC5(CCCOC5)C4)c3F)c2)c1C1CC1 (stereo not drawn) [Example 43, 5-Cyclopropyl-1-[3-(2-fluoro-3-{2-oxa-8-azaspiro[5.5]undecane-8-carbonyl}phenyl)phenyl]-1H-pyrazole-4-carboxylic Acid] | 10 to 100 | 1000 to 10000 | 100 to 1000 |  |
| O=C(O)c1cnn(-c2cccc(-c3cccc(C(=O)N4CCOC5(CCCC5)C4)c3F)c2)c1C1CC1 [Example 44, 5-cyclopropyl-1-[3-(2-fluoro-3-{6-oxa-9-azaspiro[4.5]decane-9-carbonyl}phenyl)phenyl]-1H-pyrazole-4-carboxylic Acid] | 10 to 100 | 1000 to 10000 | 100 to 1000 |  |
| CC(=O)N1CCC(c2c(C(=O)O)cnn2-c2cccc(-c3cccc(C(=O)N(C)C)c3)c2)CC1 [Example 46] | 1000 to 10000 | 1000 to 10000 | 10000 to 100000 |  |
| CN(CC1CC1)C(=O)c1cccc(-c2cccc(-n3ncc(C(=O)O)c3C(F)(F)F)c2)c1F [Example 47, 1-(3-{3-[(cyclopropylmethyl)(methyl)carbamoyl]-2-fluorophenyl}phenyl)-5-(trifluoromethyl)-1H-pyrazole-4-carboxylic Acid] | 100 to 1000 | 1000 to 10000 | 1000 to 10000 |  |
| CN(CC1CC1)C(=O)c1cccc(-c2cccc(-n3ncc(C(=O)O)c3C3CC3)c2)c1F [Example 48, 5-cyclopropyl-1-(3-{3-[(cyclopropylmethyl)(methyl)carbamoyl]-2-fluorophenyl}phenyl)-1H-pyrazole-4-carboxylic Acid] | 100 to 1000 | 1000 to 10000 | 1000 to 10000 |  |
| CN(C)C(=O)c1cccc(-c2cccc(-n3ncc(C(=O)O)c3C3CC(c4ccccc4)C3)c2)c1 (stereo not drawn) [Example 49, 1-{3-[3-(dimethylcarbamoyl)phenyl]phenyl}-5-(3-phenylcyclobutyl)-1H-pyrazole-4-carboxylic Acid] | 100 to 1000 | 1000 to 10000 | 10000 to 100000 |  |
| O=C(O)c1cnn(-c2cccc(-c3cccc(C4CCCO4)c3)c2)c1C1CC1 (stereo not drawn) [Example 50, 5-Cyclopropyl-1-[3′-(tetrahydro-furan-2-yl)-biphenyl-3-yl]-1H-pyrazole-4-carboxylic Acid] | 1000 to 10000 | 1000 to 10000 | > 100000 |  |
| CCCC1CCCCN1C(=O)c1cccc(-c2cccc(-n3ncc(C(=O)O)c3C3CC3c3cccnc3)c2)c1 (stereo not drawn) [Example 52, 1-{3-[3-(2-propylpiperidine-1-carbonyl)phenyl]phenyl}-5-[2-(pyridin-3-yl)cyclopropyl]-1H-pyrazole-4-carboxylic Acid] | 100 to 1000 |  | 1000 to 10000 | 1000 to 10000 |
| CCCC1CCCCN1C(=O)c1cccc(-c2cccc(-n3ncc(C(=O)O)c3CCc3cn(C)nn3)c2)c1F (stereo not drawn) [Example 56, 1-(2′-Fluoro-3′-(2-propylpiperidine-1-carbonyl)-[1,1′-biphenyl]-3-yl)-5-(2-(1-methyl-1H-1,2,3-triazol-4-yl)ethyl)-1H-pyrazole-4-carboxylic Acid] | 10 to 100 | 1000 to 10000 | 100 to 1000 |  |
| CCC[C@@H]1CCCCN1C(=O)c1cccc(-c2cccc(-n3ncc(C(=O)O)c3CCc3cn(C)nn3)c2)c1 [Example 58, (R)-5-(2-(1-Methyl-1H-1,2,3-triazol-4-yl)ethyl)-1-(3′-(2-propylpiperidine-1-carbonyl)-[1,1′-biphenyl]-3-yl)-1H-pyrazole-4-carboxylic Acid] | 10 to 100 |  | 100 to 1000 | 1000 to 10000 |
| CC(Oc1cccc(-c2cccc(-n3ncc(C(=O)O)c3C3CC3)c2)c1)C1CCCCC1 (stereo not drawn) [Example 60, 1-(3′-(1-Cyclohexylethoxy)-[1,1′-biphenyl]-3-yl)-5-cyclopropyl-1H-pyrazole-4-carboxylic Acid] | 1000 to 10000 | 1000 to 10000 | 10000 to 100000 |  |
| CC(C)Oc1cccc(-c2cccc(-n3ncc(C(=O)O)c3C(F)(F)F)n2)c1 [Example 66, 1-(6-(3-Isopropoxyphenyl)pyridin-2-yl)-5-(trifluoromethyl)-1H-pyrazole-4-carboxylic Acid] | 1000 to 10000 | 1000 to 10000 | > 100000 |  |
| Cn1cc(CCc2c(C(=O)O)cnn2-c2cccc(-c3cccc(OCC4CCCCC4)c3)c2)nn1 [Example 151, 1-(3-(Cyclohexylmethoxy)-[1,1′-biphenyl]-3-yl)-5-(2-(1-methyl-1H-1,2,3-triazol-4-yl)ethyl)-1H-pyrazole-4-carboxylic acid] | 1000 to 10000 | 1000 to 10000 | 10000 to 100000 |  |
| Cn1cc(CCCCOc2cccc(-c3cccc(-n4ncc(C(=O)O)c4C4CC4)c3)c2)nn1 [Example 153, 5-Cyclopropyl-1-(3′-(4-(1-methyl-1H-1,2,3-triazol-4-yl)butoxy)-[1,1′-biphenyl]-3-yl)-1H-pyrazole-4-carboxylic Acid] | 1000 to 10000 | 1000 to 10000 | 10000 to 100000 |  |
| CCn1cc(C2CC2c2c(C(=O)O)cnn2-c2cccc(-c3cccc(C(=O)N(C)C)c3)c2)nn1 (stereo not drawn) [Example 158, 1-(3′-(dimethylcarbamoyl)-[1,1′-biphenyl]-3-yl)-5-(2-(1-ethyl-1H-1,2,3-triazol-4-yl)cyclopropyl)-1H-pyrazole-4-carboxylic Acid] | 100 to 1000 | 1000 to 10000 | 1000 to 10000 |  |
| CCC[C@@H]1CCCCN1C(=O)c1cccc(-c2cccc(-n3ncc(C(=O)O)c3C3CC3c3cnoc3C)c2)c1 (stereo partly drawn) [Example 159, 5-(2-(5-Methylisoxazol-4-yl)cyclopropyl)-1-(3′-((R)-2-propylpiperidine-1-carbonyl)-[1,1′-biphenyl]-3-yl)-1H-pyrazole-4-carboxylic Acid] | 10 to 100 |  | 10 to 100 | 100 to 1000 |
| Cn1cc(C2CC2c2c(C(=O)O)cnn2-c2cccc(-c3cccc(OC(C)(C)C)c3)c2)nn1 (stereo not drawn) [Example 166, 1-(3′-(tert-Butoxy)-[1,1′-biphenyl]-3-yl)-5-(2-(1-methyl-1H-1,2,3-triazol-4-yl)cyclopropyl)-1H-pyrazole-4-carboxylic acid] | 10 to 100 | 100 to 1000 | 100 to 1000 |  |
| COCCC(COc1cccc(-c2cccc(-n3ncc(C(=O)O)c3C3CC3c3cn(C)nn3)c2)c1)C1CCCCC1 (stereo not drawn) [Example 168, 1-(3′-(2-Cyclohexyl-4-methoxybutoxy)-[1,1′-biphenyl]-3-yl)-5-(2-(1-methyl-1H-1,2,3-triazol-4-yl)cyclopropyl)-1H-pyrazole-4-carboxylic acid] | 10 to 100 | 10 to 100 | 100 to 1000 |  |
| Cn1cc(C2CC2c2c(C(=O)O)cnn2-c2cccc(-c3cccc(OCC4CCCOC4)c3)c2)nn1 (stereo not drawn) [Example 169, 5-(2-(1-Methyl-1H-1,2,3-triazol-4-yl)cyclopropyl)-1-(3′-((tetrahydro-2H-pyran-3-yl)methoxy)-[1,1′-biphenyl]-3-yl)-1H-pyrazole-4-carboxylic acid] | 100 to 1000 | 1000 to 10000 | 100 to 1000 |  |

Source: patent US10364256B2 (GlaxoSmithKline Intellectual Property Development Limited, priority 2015, dated 2019)
